Measured values from patent publication US8211911B2, “Compounds as kinase inhibitors” (priority 2008, dated 2012).
Read-outs that look alike come from different tables or passages of the source.

What was measured:
colon LOVO cell line = assay: MTT assay against colon LOVO cell line; assay type: cell-based, human
NSCLC A549 cell line = assay: MTT assay against human tumor NSCLC A549 cell line; assay type: cell-based

| SMILES | IC50 (colon LOVO cell line; Homo sapiens) [µM] | IC50 (NSCLC A549 cell line; Homo sapiens) [µM] | IC50 (colon LOVO cell line) [µM] | IC50 (NSCLC A549 cell line) [µM] |
| --- | --- | --- | --- | --- |
| COc1cc2c(Oc3ccc4[nH]c(C)cc4c3F)ccnc2cc1OCCN1CC(=O)C2(CC2)C1 [Example 2, 5-(2-(4-(4-Fluoro-2-methyl-1H-indol-5-yloxy)-6-methoxyquinolin-7-yloxy)ethyl)-5-azaspiro[2.4]-heptan-7-one] | 0.3 | 0.1 | – | – |
| CNC(=O)c1cccc2cc(Oc3ccnc4cc(OCCN5CC(=O)C6(CC6)C5)c(OC)cc34)ccc12 [Example 22, 6-(6-Methoxy-7-(2-(7-oxo-5-azaspiro[2.4]heptan-5-yl)ethoxy)quinolin-4-yloxy)-N-methyl-1-naphthamide] | 1.1 | 0.7 | – | – |
| CNC(=O)c1cccc2cc(Oc3ccnc4cc(OCCCN5CC6(CC6)C6(C5)OCCO6)c(OC)cc34)ccc12 [Example 26, 6-(6-Methoxy-7-[3-(5,8-Dioxa-10-azadispiro[2.0.4.3]undecane)propoxy]quinolin-4-yloxy)-N-methyl-1-naphthamide] | – | – | 1.1 | 0.8 |
| COc1cc2c(Oc3ccc4[nH]c(C)cc4c3F)ccnc2cc1OCCCN1CC2(CC2)C2(C1)OCCO2 [Example 6, 4-(4-fluoro-2-methyl-1H-indol-5-yloxy)-6-methoxy-7-[3-(5,8-Dioxa-10-azadispiro[2.0.4.3]-undecane)propoxy]quinoline] | – | – | 0.4 | 0.08 |
| COc1cc2c(Oc3ccc4[nH]c(C)cc4c3F)ccnc2cc1OCCN1CC(OC)C2(CC2)C1 (stereo not drawn) [Example 4, 4-(4-Fluoro-2-methyl-1H-indol-5-yloxy)-6-methoxy-7-(2-(7-methoxy-5-azaspiro[2.4]heptan-5-yl)ethoxy)quinoline] | 0.4 | 0.08 | – | – |
| CNC(=O)c1c(C)oc2cc(Oc3ccnc4cc(OCCCN5CC6(CC6)C6(C5)OCCO6)c(OC)cc34)ccc12 [Example 16, 6-(6-Methoxy-7-[3-(5,8-Dioxa-10-azadispiro[2.0.4.3]undecane)propoxy]quinolin-4-yloxy)-N,2-dimethylbenzofuran-3-carboxamide] | – | – | 0.7 | 0.2 |
| C=C1CN(CCCOc2cc3nccc(Oc4ccc5c(C(=O)NC)c(C)oc5c4)c3cc2OC)CC12CC2 [Example 20, 6-(6-Methoxy-7-(3-(7-methylene-5-azaspiro[2.4]heptan-5-yl)propoxy)quinolin-4-yloxy)-N,2-dimethylbenzofuran-3-carboxamide] | 0.9 | 0.3 | – | – |
| C=C1CN(CCCOc2cc3nccc(Oc4ccc5c(C(=O)NC)cccc5c4)c3cc2OC)CC12CC2 [Example 30, 6-(6-Methoxy-7-(3-(7-methylene-5-azaspiro[2.4]heptan-5-yl)propoxy)quinolin-4-yloxy)-N-methyl-1-naphthamide] | 1 | 0.9 | – | – |
| CNC(=O)c1cccc2cc(Oc3ccnc4cc(OCCCN5CC(=O)C6(CC6)C5)c(OC)cc34)ccc12 [Example 27, 6-(6-Methoxy-7-(3-(7-oxo-5-azaspiro[2.4]heptan-5-yl)propoxy)quinolin-4-yloxy)-N-methyl-1-naphthamide] | 0.9 | 0.4 | – | – |
| CNC(=O)c1cccc2cc(Oc3ccnc4cc(OCCN5CC6(CC6)C6(C5)OCCO6)c(OC)cc34)ccc12 [Example 21, 6-(6-Methoxy-7-[2-(5,8-Dioxa-10-azadispiro[2.0.4.3]undecane)ethoxy]quinolin-4-yloxy)-N-methyl-1-naphthamide] | – | – | 1.1 | 0.8 |
| CNC(=O)c1c(C)oc2cc(Oc3ccnc4cc(OCCN5CC(=O)C6(CC6)C5)c(OC)cc34)ccc12 [Example 12, 6-(6-Methoxy-7-(2-(7-oxo-5-azaspiro[2.4]heptan-5-yl)ethoxy)quinolin-4-yloxy)-N,2-dimethylbenzofuran-3-carboxamide] | 0.9 | 0.3 | – | – |
| COc1cc2c(Oc3ccc4[nH]c(C)cc4c3F)ccnc2cc1OCCCN1CC(O)C2(CC2)C1 (stereo not drawn) [Example 8, 5-(3-(4-(4-Fluoro-2-methyl-1H-indol-5-yloxy)-6-methoxyquinolin-7-yloxy)propyl)-5-azaspiro[2.4]-heptan-7-ol] | 0.3 | 0.1 | – | – |
| COc1cc2c(Oc3ccc4[nH]c(C)cc4c3F)ccnc2cc1OCCCN1CC(=O)C2(CC2)C1 [Example 7, 5-(3-(4-(4-Fluoro-2-methyl-1H-indol-5-yloxy)-6-methoxyquinolin-7-yloxy)propyl)-5-azaspiro[2.4]-heptan-7-one] | 0.2 | 0.09 | – | – |
| COc1cc2c(Oc3ccc4[nH]c(C)cc4c3F)ccnc2cc1OCCCN1CC(OC)C2(CC2)C1 (stereo not drawn) [Example 9, 4-(4-Fluoro-2-methyl-1H-indol-5-yloxy)-6-methoxy-7-(3-(7-methoxy-5-azaspiro[2.4]heptan-5-yl)propoxy)quinoline] | 0.4 | 0.1 | – | – |
| COc1cc2c(Oc3ccc4[nH]c(C)cc4c3F)ccnc2cc1OCCN1CC(O)C2(CC2)C1 (stereo not drawn) [Example 3, 5-(2-(4-(4-fluoro-2-methyl-1H-indol-5-yloxy)-6-methoxyquinolin-7-yloxy)ethyl)-5-azaspiro[2.4]-heptan-7-ol] | 0.4 | 0.1 | – | – |
| CNC(=O)c1c(C)oc2cc(Oc3ccnc4cc(OCCCN5CC(=O)C6(CC6)C5)c(OC)cc34)ccc12 [Example 17, 6-(6-Methoxy-7-(3-(7-oxo-5-azaspiro[2.4]heptan-5-yl)propoxy)quinolin-4-yloxy)-N,2-benzofuran-3-carboxamide] | – | – | 0.9 | 0.3 |
| CNC(=O)c1c(C)oc2cc(Oc3ccnc4cc(OCCN5CC(O)C6(CC6)C5)c(OC)cc34)ccc12 (stereo not drawn) [Example 13, 6-(7-(2-(7-Hydroxy-5-azaspiro[2.4]heptan-5-yl)ethoxy)-6-methoxyquinolin-4-yloxy)-N,2-dimethylbenzofuran-3-carboxamide] | 0.9 | 0.2 | – | – |
| CNC(=O)c1cccc2cc(Oc3ccnc4cc(OCCN5CC(O)C6(CC6)C5)c(OC)cc34)ccc12 (stereo not drawn) [Example 23, 6-(7-(2-(7-Hydroxy-5-azaspiro[2.4]heptan-5-yl)ethoxy)-6-methoxyquinolin-4-yloxy)-N-methyl-1-naphthamide] | 1.2 | 0.8 | – | – |
| C=C1CN(CCCOc2cc3nccc(Oc4ccc5[nH]c(C)cc5c4F)c3cc2OC)CC12CC2 [Example 10, 4-(4-Fluoro-2-methyl-1H-indol-5-yloxy)-6-methoxy-7-(3-(7-methylene-5-azaspiro[2.4]heptan-5-yl)propoxy)quinoline] | 0.4 | 0.1 | – | – |
| CNC(=O)c1cccc2cc(Oc3ccnc4cc(OCCCN5CC(O)C6(CC6)C5)c(OC)cc34)ccc12 (stereo not drawn) [Example 28, 6-(7-(3-(7-Hydroxy-5-azaspiro[2.4]heptan-5-yl)propoxy)-6-methoxyquinolin-4-yloxy)-N-methyl-1-naphthamide] | 1.5 | 1 | – | – |
| CNC(=O)c1cccc2cc(Oc3ccnc4cc(OCCN5CC(OC)C6(CC6)C5)c(OC)cc34)ccc12 (stereo not drawn) [Example 24, 6-(6-Methoxy-7-(2-(7-methoxy-5-azaspiro[2.4]heptan-5-yl)ethoxy)quinolin-4-yloxy)-N-methyl-1-naphthamide] | 1.5 | 1 | – | – |
| CNC(=O)c1cccc2cc(Oc3ccnc4cc(OCCCN5CC(OC)C6(CC6)C5)c(OC)cc34)ccc12 (stereo not drawn) [Example 29, 6-(6-Methoxy-7-(3-(7-methoxy-5-azaspiro[2.4]heptan-5-yl)propoxy)quinolin-4-yloxy)-N-methyl-1-naphthamide] | 0.9 | 0.3 | – | – |
| CNC(=O)c1c(C)oc2cc(Oc3ccnc4cc(OCCN5CC(OC)C6(CC6)C5)c(OC)cc34)ccc12 (stereo not drawn) [Example 14, 6-(6-Methoxy-7-(2-(7-methoxy-5-azaspiro[2.4]heptan-5-yl)ethoxy)quinolin-4-yloxy)-N,2-dimethylbenzofuran-3-carboxamide] | 0.7 | 0.2 | – | – |
| C=C1CN(CCOc2cc3nccc(Oc4ccc5[nH]c(C)cc5c4F)c3cc2OC)CC12CC2 [Example 5, 4-(4-Fluoro-2-methyl-1H-indol-5-yloxy)-6-methoxy-7-(2-(7-methylene-5-azaspiro[2.4]heptan-5-yl)ethoxy)quinoline] | 0.4 | 0.1 | – | – |
| COc1cc2c(Oc3ccc4[nH]c(C)cc4c3F)ccnc2cc1OCCN1CC2(CC2)C2(C1)OCCO2 [Example 1, 4-(4-Fluoro-2-methyl-1H-indol-5-yloxy)-6-methoxy-7-[2-(5,8-Dioxa-10-azadispiro[2.0.4.3]-undecane)ethoxy]quinoline] | – | – | 0.2 | 0.09 |
| CNC(=O)c1c(C)oc2cc(Oc3ccnc4cc(OCCN5CC6(CC6)C6(C5)OCCO6)c(OC)cc34)ccc12 [Example 11, 6-(6-Methoxy-7-[2-(5,8-Dioxa-10-azadispiro[2.0.4.3]undecane)ethoxy]quinolin-4-yloxy)-N,2-dimethylbenzofuran-3-carboxamide] | – | – | 0.7 | 0.2 |
| C=C1CN(CCOc2cc3nccc(Oc4ccc5c(C(=O)NC)cccc5c4)c3cc2OC)CC12CC2 [Example 25, 6-(6-Methoxy-7-(2-(7-methylene-5-azaspiro[2.4]heptan-5-yl)ethoxy)quinolin-4-yloxy)-N-methyl-1-naphthamide] | 0.9 | 0.3 | – | – |
| CNC(=O)c1c(C)oc2cc(Oc3ccnc4cc(OCCCN5CC(OC)C6(CC6)C5)c(OC)cc34)ccc12 (stereo not drawn) [Example 19, 6-(6-Methoxy-7-(3-(7-methoxy-5-azaspiro[2.4]heptan-5-yl)propoxy)quinolin-4-yloxy)-N,2-dimethyl-benzofuran-3-carboxamide] | 0.7 | 0.2 | – | – |
| CNC(=O)c1c(C)oc2cc(Oc3ccnc4cc(OCCCN5CC(O)C6(CC6)C5)c(OC)cc34)ccc12 (stereo not drawn) [Example 18, 6-(7-(3-(7-Hydroxy-5-azaspiro[2.4]heptan-5-yl)propoxy)-6-methoxyquinolin-4-yloxy)-N,2-dimethyl-benzofuran-3-carboxamide] | 0.8 | 0.5 | – | – |
| C=C1CN(CCOc2cc3nccc(Oc4ccc5c(C(=O)NC)c(C)oc5c4)c3cc2OC)CC12CC2 [Example 15, 6-(6-Methoxy-7-(2-(7-methylene-5-azaspiro[2.4]heptan-5-yl)ethoxy)quinolin-4-yloxy)-N,2-dimethyl-benzofuran-3-carboxamide] | 0.9 | 0.3 | – | – |
